Test results as given in EP0907632B1, “INHIBITION OF MATRIX METALLOPROTEASES BY SUBSTITUTED PHENETHYL COMPOUNDS” (Bayer Corporation, priority 1996, dated 1997).

How the values were obtained:
[1] = molecular target: T1, MMP-9 (Homo sapiens, UniProt P14780); format: biochemical; conditions: 6 µM P218 substrate, pH 6.5, 25 min at 37°C; calculated from IC50; read-out: MMP-9 Kf
T1 construct: made in house
Excerpt: (§1) The P218 quenched fluorescence assay (Microfluorometric Profiling Assay) is a modification of that originally described by Knight, et al., FEBS Lett. 296, 263, 1992 for a related substance and a variety of matrix metalloproteinases (MMPs) in cuvettes. The assay was run with each invention compound and the three MMPs, Mmp-3, MMP-9 and MMP-2, analyzed in parallel, adapted as follows for a 96-well microtiter plate and a Hamilton AT® workstation. P218 Fluorogenic Substrate: P218 is a synthetic substrate containing a 4-acetyl-7-methoxycoumarin (MCA) group in the N-terminal position and a 3-[2, 4-dinitrophenyl]-L-2,3-diaminopropionyl (DPA) group internally. This is a modification of a peptide reported by Knight (1992) that was used as a substrate for matrix metalloproteinases. Once the P218 peptide is cleaved (putative clip site at the Ala-Leu bond), the fluorescence of the MCA group can be detected on a fluorometer with excitation at 328 nm and emission at 393 nm. P218 is currently being produced BACHEM exclusively for Bayer. P218 has the structure: H-MCA-Pro-Lys-Pro-Leu-Ala-Leu-DPA-Ala-Arg-NH2 (MW 1332.2)
Recombinant Human Pro-MMP-9: Human pro-gelatinase B (pro-MMP-9) derived from U937 cDNA as described by Wilhelm, et al. J. Biol. Chem. 264, 17213, 1989 was expressed as the full-length form using a baculovirus protein expression system. The pro-enzyme was purified using methods previously described by Hibbs, et al. J. Biol. Chem. 260, 2493, 1984.
Activation of Pro-MMP-9: […] 20 µg/mL in 50 mM Tris at pH 7.4, 10mM CaCl2, 150 mM NaCl, and 0.005% Brij-35 (MMP-9 activation buffer) was activated by incubation with 0.5 mM p-aminophenylmercuric acetate (APMA) for 3.5 h at 37 °C. The enzyme was dialyzed against the same buffer to remove the APMA.
(§2) Hamiltion Microlab AT P!us: The MMP-Profiling Assay is performed robotically on a Hamilton MicroLab AT Plus®. The Hamilton is programmed to: (1) serially dilute up to 11 potential inhibitors automatically from a 2.5 mM stock in 100% DMSO; (2) distribute substrate followed by inhibitor into a 96 well Cytofluor plate; and (3) add a single enzyme to the plate with mixing to start the reaction. Subsequent plates for each additional enzyme are prepared automatically by beginning the program at the substrate addition point, remixing the diluted inhibitors and beginning the reaction by addition of enzyme. In this way, all MMP assays were done using the same inhibitor dilutions.
(§3) Millipore Cytofluor II. Following incubation, the plate was read on a Cytofluor II fluorometric place reader with excitation at 340 nm and emission at 395 nm with the gain set at 80.
(§4) Microfluorometric Reaction Buffer (MRB): Dilution of test compounds, enzymes, and P218 substrate for the microfluorometric assay were made in microfluorometric reaction buffer consisting of 50 mM 2-(N-morpholino)ethanesulfonic acid (MES) at pH 6.5 with 10 mM CaCl2, 150 mM NaCl, 0.005% Brij-35 and 1% DMSO.
(§5) MMP Microfluorometric Profiling Assay. The assay is done with a final substrate concentration of 6 µM P218 and approximately .5 to .8 nM MMP with variable drug concentrations. The Hamilton is programmed to serially dilute up to 11 compounds from a 2.5 mM stock (100% DMSO) to 10x the final compounds concentrations in the assay. Initially, the instrument delivers various amounts of microfluoromentric reaction buffer (MRB) to a 96 tube rack of 1 ml Marsh dilution tubes. The instrument then picks up 20 µl of inhibitor (2.5 mM) from the sample rack and mixes it with a buffer in row A of the Marsh rack, resulting in a 50 µM drug concentration. The inhibitors are then serially diluted to 10, 5, 1, .2, .05 and .01 µM. Position 1 on the sample rack contains only DMSO for the "enzyme-only" wells in the assay, which results in no inhibitor in column 1, rows A through H. The instrument then distributes 107 µl of P218 substrate (8.2 µM in MRB) to a single 96 well cytofluor microtiter plate. […]

[2] = molecular target: T2, MMP-2 (Homo sapiens, UniProt P08253); assay: biochemical
T2 sequence (P08253 110-660): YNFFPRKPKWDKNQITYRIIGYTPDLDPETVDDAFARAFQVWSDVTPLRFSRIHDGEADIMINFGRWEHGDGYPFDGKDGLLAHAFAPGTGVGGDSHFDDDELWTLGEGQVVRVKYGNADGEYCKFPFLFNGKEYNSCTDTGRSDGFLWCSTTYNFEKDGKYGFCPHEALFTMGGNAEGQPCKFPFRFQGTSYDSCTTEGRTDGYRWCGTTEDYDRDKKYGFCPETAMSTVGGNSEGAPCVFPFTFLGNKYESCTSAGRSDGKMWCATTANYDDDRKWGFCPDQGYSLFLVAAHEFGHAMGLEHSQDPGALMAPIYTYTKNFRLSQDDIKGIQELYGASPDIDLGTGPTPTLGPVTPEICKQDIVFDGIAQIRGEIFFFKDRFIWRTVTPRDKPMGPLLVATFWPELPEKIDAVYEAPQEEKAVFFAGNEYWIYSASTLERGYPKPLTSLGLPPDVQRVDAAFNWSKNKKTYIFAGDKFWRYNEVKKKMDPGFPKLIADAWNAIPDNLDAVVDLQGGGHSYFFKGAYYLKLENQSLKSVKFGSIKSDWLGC

[3] = molecular target: T3, MMP-3 (Homo sapiens, UniProt P08254); format: biochemical; conditions: 6 µM P218 substrate, pH 6.5, 25 min at 37°C; calculated from IC50; read-out: MMP-3 Kf
T3 construct: made in house; host or cells: CHO cells
Excerpt: as §1
Recombinant Human CHO Pro-MMP-3: Human CHO pro-stromelysin-257 (pro-MMP-3) was expressed and purified as described by Housley, et al., J. Biol. Chem. 268, 4481, 1993.
Activation of Pro-MMP-3 Pro-MMP-3 at 1.72 µM (100 µg/mL) in 5 mM Tris at pH 7.5, 5 mM CaCl2, 25 mM NaCl, and 0.005% Brij-35 (MMP-3 activation buffer) was activated by incubation with TPCK (N-tosyl-(L)-phenylalanine chloromethyl ketone) trypsin (1:100 w/w to pro-MMP-3) at 25 °C for 30 min. The reaction was stopped by addition of soybean trypsin inhibitor (SBTI: 5:1 w/w to trypsin concentration). This activation protocol results in the formation of 45 kDa active MMP-3, which still contains the C-terminal portion of the enzyme.
as §2, §3, §4, §5

T3 sequence (P08254 100-477): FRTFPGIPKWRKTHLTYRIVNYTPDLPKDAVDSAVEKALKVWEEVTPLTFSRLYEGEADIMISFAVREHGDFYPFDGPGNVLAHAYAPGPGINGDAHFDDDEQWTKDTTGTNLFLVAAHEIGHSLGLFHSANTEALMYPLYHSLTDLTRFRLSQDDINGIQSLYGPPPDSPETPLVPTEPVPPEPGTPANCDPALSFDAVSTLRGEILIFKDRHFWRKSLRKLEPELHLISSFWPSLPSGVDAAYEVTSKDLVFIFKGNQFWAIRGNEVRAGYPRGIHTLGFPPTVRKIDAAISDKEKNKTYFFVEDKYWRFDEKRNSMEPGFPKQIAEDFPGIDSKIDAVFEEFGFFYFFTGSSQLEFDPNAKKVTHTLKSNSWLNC
T1 sequence (P14780 107-707 limits assumed): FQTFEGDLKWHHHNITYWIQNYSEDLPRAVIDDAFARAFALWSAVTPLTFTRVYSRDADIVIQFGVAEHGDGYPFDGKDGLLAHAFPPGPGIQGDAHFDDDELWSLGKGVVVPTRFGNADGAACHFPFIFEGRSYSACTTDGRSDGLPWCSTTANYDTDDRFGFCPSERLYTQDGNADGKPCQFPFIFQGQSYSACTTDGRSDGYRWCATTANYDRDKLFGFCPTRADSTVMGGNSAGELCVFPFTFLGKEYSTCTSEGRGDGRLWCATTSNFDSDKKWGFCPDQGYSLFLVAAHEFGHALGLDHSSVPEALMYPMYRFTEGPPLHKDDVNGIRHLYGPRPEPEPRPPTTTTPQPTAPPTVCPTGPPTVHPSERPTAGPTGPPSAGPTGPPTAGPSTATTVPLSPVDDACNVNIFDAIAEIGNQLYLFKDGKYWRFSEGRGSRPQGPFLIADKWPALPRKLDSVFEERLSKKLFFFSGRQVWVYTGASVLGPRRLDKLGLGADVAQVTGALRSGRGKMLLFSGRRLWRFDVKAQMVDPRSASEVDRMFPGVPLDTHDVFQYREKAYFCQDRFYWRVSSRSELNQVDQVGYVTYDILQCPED

SMILES	Ki [1] [µM]	Ki [2] [µM]	Ki [3] [µM]
CC(C)CCNC(=O)c1cccc(CCC(CC(=O)c2ccc(-c3ccc(Cl)cc3)cc2)C(=O)O)c1 (stereo not drawn) [XIV, 4'-chloro-α-[2-[3-[[(3-methylbutyl)amino]carbonyl]phenyl]ethyl]-γ-oxo-[1,1'-biphenyl]-4-butanoic acid]	0.707	0.11	0.308
CCOC(=O)CNC(=O)c1ccc(CCC(CC(=O)c2ccc(-c3ccc(Cl)cc3)cc2)C(=O)O)cc1 (stereo not drawn) [XIX, 4'-chloro-α-[2-[4-[[(2-ethoxy-2-oxoethyl)amino]carbonyl]phenyl]ethyl]-γ-oxo[1,1'-biphenyl]4-butanoic acid]	0.423	0.0823	0.376
O=C(CC(CCc1cccc(C(=O)NCc2ccccc2)c1)C(=O)O)c1ccc(-c2ccc(Cl)cc2)cc1 (stereo not drawn) [XV, 4'-chloro-γ-oxo-α-[2-[3-[[(phenylmethyl)amino]carbonyl]phenyl]ethyl]-[1,1'-biphenyl]-4-butanoic acid]	0.493	0.104	0.364
CCOC(=O)CN(C)C(=O)c1cccc(CCC(CC(=O)c2ccc(-c3ccc(Cl)cc3)cc2)C(=O)O)c1 (stereo not drawn) [XVI, 4'-chloro-α-[2-[3-[[(2-ethoxy-2-oxoethyl)methylamino]carbonyl]phenyl]ethyl]-γ-oxo-[1,1'-biphenyl]-4-butanoic acid]	0.137	0.00986	0.0248
CC(C)CCNC(=O)c1ccc(CCC(CC(=O)c2ccc(-c3ccc(Cl)cc3)cc2)C(=O)O)cc1 (stereo not drawn) [XVIII, 4'-chloro-α-[2-[4-[[(3-methylbutyl)amino]carbonyl]phenyl]ethyl]-γ-oxo-[1,1'-biphenyl]-4-butanoic acid]	0.452	0.137	0.677
